{
  "source": "patent US12582642B2",
  "about": "“Composition for treating, improving, and/or preventing progression of bovine papillomatosis caused by bovine papillomavirus” (KinoPharma, Inc., priority 2020, dated 2026)",
  "key": {"[1]": {"system": "bovine papilloma (wart) caused by BPV in front teats", "experiment": "Therapeutic effect confirmation test performed on dairy cow having papilloma", "type": "in vivo, cow (female dairy cows)", "design": "key to Determination (pharmaceutical effect for each individual cow): Effective: Test section>Control section; Ineffective: Test section≤Control section", "source_text": "To female dairy cows (four), each having papillomas in both of front teats, an ointment agent containing Compound A was applied once a day to a papilloma (wart) of one of the front teats (test section). A dressing tape (Navis, PROSHARE Dressing Role, No. 8-5965-01) was applied around the teat after the application of the ointment agent to prevent external contamination. The ointment agent was applied over a surface of the teat at about 0.01 g to about 0.2 g (equivalent to the active ingredient of about 0.3 mg to about 6 mg) per 1 cm^2 of the surface area. The application (treatment) of 5-day administration with 2-day rest was continued for 4 weeks. The diseased part was imaged once a week. Pharmaceutical effects were evaluated based on a state of the diseased part (wart) four weeks after the start of the application.\nChanges (size reduction/disappearance, no change, and growth/occurrence) of warts after four-week administration were evaluated with the following three-level evaluation scores. No change” includes the suppression of growth and being non-effective. “Occurrence” means that a new wart was generated during the four-week administration.\nSize reduction/disappearance=+1, no change=0, and growth/occurrence=−1.\nFurther, scores were added for each individual cow, and pharmaceutical effects for each individual cow were determined based on the following criteria. • Effective: Test section>Control section • Ineffective: Test section≤Control section\nWhen only small warts were targeted, the growth or size reduction of warts noticeably appear, which is considered to make it easier to determine the effects of Compound A. In view of this, only warts having a size of less than 5 mm before the application of an ointment agent were selected from the test sections and the control sections in the above-described confirmation test, and the ratio of warts that had smaller sizes or disappeared was calculated."}, "[2]": {"system": "bovine papilloma (wart) caused by BPV in front teats", "experiment": "Therapeutic effect confirmation test performed on dairy cow having papilloma", "type": "in vivo, cow (female dairy cows)"}, "[3]": {"settings": "total of cows 01-04, ointment 3% by weight, 4 weeks"}},
  "note": "“And” between values parts separate entries of the source, which are not always exact repeats. Identical values can stand only once. “Also recorded” adds a separate entry of the source.",
  "data": [
    {"compound": "Fc1ccc(N2CCCCC2)c(NC(=S)c2ccncc2)c1", "note": "[Compound A, N-[5-fluoro-2-(1-piperidinyl)phenyl]-4-pyridinethioamide]", "values": [
      {"measurement": "Ratio of warts that had smaller sizes or disappeared", "setting": "[1]; Evaluation Method 2: only warts of less than 5 mm before application, 14 warts in the test sections, control sections 0%", "result": 28.6, "unit": "%"},
      {"measurement": "Overall judgement of the ointment agent containing Compound A", "setting": "[1]; based on the total scores and on the individual cow evaluations, 4 weeks", "result": "considered effective"},
      {"measurement": "Cases (cows) determined effective out of four cases", "setting": "[1]; four cows, 4 weeks, ointment 3% by weight", "result": "Effective in three"},
      {"measurement": "State of diseased part in a test section (FIG. 2 images)", "setting": "[1]; from before the start of administration to after the end of administration", "result": "warts disappeared"},
      {"measurement": "Test section Growth/Occurrence (evaluation score)", "setting": "[1]; per individual cow, ointment (Compound A: 3% by weight) applied once a day to teat wart, 4 weeks, growth/occurrence=−1 per wart", "result": "0 (3×) and −6"},
      {"measurement": "Test section Size reduction/Disappearance (evaluation score)", "setting": "[1]; per individual cow, ointment (Compound A: 3% by weight, white petrolatum) applied once a day to teat wart, 5-day administration with 2-day rest, 4 weeks, size reduction/disappearance=+1 per wart", "result": "+1 (2×) and +3 and +2"},
      {"measurement": "Determination (pharmaceutical effect for each individual cow)", "setting": "[1]; per individual cow, test section score versus control section (ointment base) score, 4 weeks", "result": "Ineffective; also recorded: Effective"},
      {"measurement": "Effectiveness score Test section", "setting": "[1]; scores added for each individual cow, ointment 3% by weight, 4 weeks", "result": "+1 (2×) and −3 and +2"},
      {"measurement": "Test section Growth/Occurrence, Total of four cows", "setting": "[1]; [3]", "result": "−6"},
      {"measurement": "Test section Size reduction/Disappearance, Total of four cows", "setting": "[1]; [3]", "result": "+7"},
      {"measurement": "Effectiveness score Test section, Total", "setting": "[1]; total of four cows, control sections total −8, 4 weeks", "result": "+1"},
      {"measurement": "Warts that disappeared among the additional reduced warts in the test section", "setting": "[2]; administration continued for a further four weeks after the four-week administration", "result": "two"},
      {"measurement": "Additional warts with reduced size in the test section", "setting": "[2]; administration continued under the same conditions for a further four weeks after the four-week administration", "result": "four"}
    ]}
  ]
}
